The values below come from patent US10420751B2, “Methods of treating inflammatory bowel disease with AMD3100 and tacrolimus” (priority 2009, dated 2019).

Read-outs that look alike come from different tables or passages of the source.

Test [1] has as its target CXCR4 chomokin receptor (Homo sapiens, UniProt P61073). To be noted: Peled et al.; read-out: IC50, binds and inhibits CXCR4; cited from earlier work.
Test [2] relates to cell migration stimulated by CXCL12. The note with it: Peled et al.; cited from earlier work.
The subject of test [3] is whole liver allograft (DA into Lewis rats). As to the kind of experiment: Whole liver transplantation, rejection model: survival. To be noted: s.c. day 0,1,2,3,7,10,15, controls rejected within twelve days.
Procedure: In whole liver transplantation rats, plerixafor and/or tacrolimus were injected subcutaneously immediately after reperfusion and on days 1, 2, 3, 7, 10 and 15 following transplantation.
Test [4] deals with skin allograft (DA into Lewis). Put plainly: Skin allograft survival. To be noted: FK 0.1 mg/kg and/or AMD 1 mg/kg; controls rejected within 7 days.
Procedure: DA rats or C57/B6 mice were used as skin donors and GFP transgenic Lewis rats were used as recipients. A graft bed (2.5×3 cm) was prepared on the back of a recipient rat; special care was given to preserving the panniculus carnosus. A 2.5×3 cm^2 graft, which had been prepared from the body trunk of a donor, was transplanted with interrupted sutures of 5-0 silk. The graft was covered with a protective tape and the first inspection was conducted 2 days after skin grafting and was followed by daily inspection. The rejection was defined as the day when the skin graft developed a red-brown color and hard consistency.
FK506 were injected subcutaneously every day following transplantation.
For test [5], the system named is small liver allograft (DA into Lewis rats). Put plainly: Small liver transplantation, acute rejection model: survival. The note with it: for recipient survival / liver allograft acceptance: small liver DA into Lewis, FK-506 0.1 mg/kg/day and/or AMD3100 1 mg/kg/day s.c. day 0,1,2,3,7, controls rejected within 12 days; for survival of one of five recipients: small liver, low dose FK-506 0.1 mg/kg/day alone.
Procedure: Orthotopic liver transplantation (OLT) was performed under isoflurane (Abbott laboratories, North Chicago, Ill.) inhalation anesthesia according to a method modified from previously described. Small liver transplantation consisted of removal of the left lateral lobe, the left portion of the median lobe, and the anterior and posterior caudate lobes. This reduced the liver mass by about 50%. The livers were flushed in situ with 10 ml cold saline via the portal vein, explanted and immersed in cold saline solution. The host liver was excised by ligation and division of the right adrenal and lumbar veins. The hepatic artery was ligated and divided. The bile duct was cannulated by insertion of a tube 2 mm in length (outer diameter, 1.2 mm) via choledocotomy and secured with a circumferential 8-0 silk suture. […] The suprahepatic vena cava was pulled down using a cotton tape passed around the host liver and cross-clamped with a baby Statinksy clamp. The vessels were divided and liver was removed. The donor suprahepatic vena cava was anstomosed end-to-end with the host suprahepatic vena cava with running 8-0 prolene. The portal vein and infra hepatic vena cava were anastomosed using the cuff technique described previously. The common bile duct of the donor was cannulated with the small tube residing in the host bile duct and tied in place. The hepatic artery was not reconstructed.
Some of the animals were sacrificed at day 3, 7 and 10 after transplantation and liver tissue, spleen and peripheral blood were collected.
To test this hypothesis, liver transplants from dark agouti (DA) rats into Lewis rats, i.e. the rejection model were performed. Recipient rats were treated with a hematopoietic stem cell mobilizer (plerixafor) and/or low dose immunosuppressant (tacrolimus). Transplanted rats were divided into four groups: 1) a control group treated with saline), 2) treatment with low dose immunosuppressant (tacrolimus, 0.1 mg/kg/day), 3) stem cell mobilizer (plerixafor (AMD3100), 1 mg/kg/day) alone, or 4) a combination of low dose tacrolimus and plerixafor.
In small liver transplantation rats, plerixafor and/or tacrolimus were injected subcutaneously immediately after reperfusion and on days 1, 2, 3 and 7 following transplantation. In whole liver transplantation rats, plerixafor and/or tacrolimus were injected subcutaneously immediately after reperfusion and on days 1, 2, 3, 7, 10 and 15 following transplantation. Animals from each group were sacrificed on post-op days 3, 7 and 10 and liver tissue, spleen and peripheral blood were collected.

Test [6] concerns liver allografts (DA into GFP-Lewis rats). Put plainly: Histology (H&E), GFP microscopy and Xenogen imaging of small liver allografts. To be noted: liver allografts 7 days after transplantation, versus control group. The format is in vivo, rat.
Procedure: Transplanted rats were divided by four groups: (1) control group (treated with same volume of saline); (2) low dose of immunosuppressant (FK-506, 0.1 mg/kg/day); (3) stem cell mobilizer (AMD3100, 1 mg/kg/day); and (4) combination of low dose FK-506 and AMD3100. AMD3100 and/or FK-506 were injected subcutaneously immediately after reperfusion and day 1, 2, 3 and 7 following liver transplantation (FIG. 1). Some of the animals were sacrificed at day 3, 7 and 10 after transplantation and liver tissue, spleen and peripheral blood were collected.
Histological changes in liver tissue sections were evaluated by H&E staining. Recipient-derived GFP positive cells in liver tissue sections were analyzed by confocal fluorescence microscopy.
GFP whole-organ fluorescence was measured using the Xenogen system.
The test system of test [7] is c-Kit+, CD133+, Lin− Thy1+c-Kit+CD133+ cells in peripheral blood. As to the kind of experiment: Mobilization of stem cells into peripheral blood (CBC and flow cytometry). It counts as in vivo, rat. To be noted: 3 hours after injection. The method, then:
Single-cell suspensions (5×10^5) of peripheral blood monocytes were analyzed for lineage negative CD34, CD133, Thy1, and c-Kit expression. Nonspecific antibody binding was blocked with goat and rat serum (Sigma) for 30 minutes. Peripheral blood cells were isolated from animals at 3 hours after injection with AMD and/or FK. Complete blood count (CBC) was measured and stem cell markers were quantified by flow cytometry. The absolute number of stem cells was calculated as WBC (-thous./μL)×% of stem cells.
A general note: A flow cytometer gives signals particle by particle.

Test [8] relates to skin xenograft (C57/B6 mice into Lewis rats). As to the kind of experiment: Skin xenograft survival, mouse into rat. It counts as in vivo. The note with it: FK 0.1 mg/kg and/or AMD 1 mg/kg.
The subject of test [9] is kidney allograft (DA to Lewis). As to the kind of experiment: Orthotopic kidney transplantation, acute rejection model: survival. It counts as in vivo, rat. The note with it: FK 0.05 mg/kg and/or AMD 1 mg/kg s.c.; controls rejected within 10 days. How it is done:
Specifically, the DA to Lewis model of acute rejection was studied. Briefly, donor kidneys obtained from male DA rats were flushed with 10 ml cold saline and were stored at 4° C. while the recipient to be prepared. Total cold ischemic time was no longer than 40 minutes. Lewis male recipients were transplanted following left native nephrectomy. The donor renal artery, vein and ureter were anastomosed to the recipient renal artery, vein and ureter. The anastomosis was completed using 10-0 silk sutures. The right native kidney was removed before closing the abdomen.
AMD3100 were injected subcutaneously immediately after reperfusion (day 0) and day 2, 4 and 6 following kidney transplantation. […] Treatments were repeated in combination treated group at 1, 2 and 3 months after transplantation. Some of animals were sacrificed at day 7 and 30 after transplantation and kidney tissue, spleen and peripheral blood were collected.

Test [10] has as its system CD34+, c-Kit+, Thy-1+ and Sca1+ cells in peripheral blood. To be noted: after liver transplantation, compared to control animals, AMD3100 1 mg/kg/day s.c. How it is done:
Single-cell suspensions (5×10^5) of peripheral blood monocytes were analyzed for CD34, CXCR4, c-Kit, Thy-1, and Sea-1 expression. Nonspecific antibody binding was blocked with goat and rat serum (Sigma) for 30 minutes.

CXCR4 chomokin receptor, sequence (P61073 whole entry): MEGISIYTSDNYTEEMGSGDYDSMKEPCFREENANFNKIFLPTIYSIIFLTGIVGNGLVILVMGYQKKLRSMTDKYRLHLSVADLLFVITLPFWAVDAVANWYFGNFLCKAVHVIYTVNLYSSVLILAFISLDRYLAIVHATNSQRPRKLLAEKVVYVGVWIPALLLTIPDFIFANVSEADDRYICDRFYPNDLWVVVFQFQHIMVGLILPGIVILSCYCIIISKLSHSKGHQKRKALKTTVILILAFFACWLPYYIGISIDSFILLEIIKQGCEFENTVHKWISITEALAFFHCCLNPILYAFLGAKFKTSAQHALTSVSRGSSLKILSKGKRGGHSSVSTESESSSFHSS

On to 4F-benzoyl-TN14003 [BKT140], for which the IC50 in [1] is ~1 nM.
As for `c1cc(CN2CCCNCCNCCCNCC2)ccc1CN1CCCNCCNCCCNCC1` [AMD3100, 1,1′-[1,4-phenylenebis(methylene)]bis-1,4,8,11-tetraazacyclo-tetradecane], the IC50 in [2] was 51 ± 17 nM. Further, the recipient survival result in test [3] is “did not significantly prolong recipient survival”. In addition, the “skin allograft survival / acceptance” value in test [4] is “did not significantly prolong the allograft survival”. The results for the “recipient survival / liver allograft acceptance” value in test [5] (listed as AMD) and in [5] (listed as plerixafor) were “did not significantly prolong the recipient survival” and “did not significantly prolong recipient survival”, respectively. Also, the figures for the “mononuclear/inflammatory cellular infiltration in portal areas (H&E)” value in test [6] (listed as AMD) and in [6] (listed as plerixafor) were “the number of infiltrating cells were less” and “the number of infiltrating cells was reduced”, respectively. For the same molecule, the “absolute number of c-Kit+, CD133+ or Lin− and Thy1+c-Kit+CD133+ triple positive cells in peripheral blood” value in test [7] (compared to saline or G-CSF treated animals) was “significantly increased”. Besides, the skin xenograft survival entry in test [8] is listed as “did not prolong the xenograft survival”. For the same molecule, the “recipient survival / kidney allograft acceptance” value in test [9] was “did not prolong the recipient survival”. The “percentage of CD34+, c-Kit+, Thy-1+ and Sca1+ cells in peripheral blood” value in test [10] (listed as AMD) is “significantly increase”; in [10] (listed as plerixafor), “significantly increased”.
`C=CC[C@@H]1/C=C(\C)C[C@H](C)C[C@H](OC)[C@H]2O[C@@](O)(C(=O)C(=O)N3CCCC[C@H]3C(=O)O[C@H](/C(C)=C/[C@@H]3CC[C@@H](O)[C@H](OC)C3)[C@H](C)[C@@H](O)CC1=O)[C@H](C)C[C@@H]2OC` [Tacrolimus]: in test [3], the recipient survival entry is “did not significantly prolong recipient survival”. Further, the “skin allograft survival / acceptance” value in test [4] is “did not significantly prolong the allograft survival”. The “recipient survival / liver allograft acceptance” value in test [5] (listed as FK-506) was “did not significantly prolong the recipient survival”; in [5] (listed as tacrolimus), “did not significantly prolong recipient survival”. Moreover, the “survival of one of five recipients” value is given as 4 months in test [5] and “more than 1 months” in [5] (0.1 mg/kg/day). For the same molecule, the “mononuclear/inflammatory cellular infiltration in portal areas (H&E)” value in test [6] is reported as “the number of infiltrating cells was reduced”; in [6] (listed as FK-506), “the number of infiltrating cells were less”. In addition, in test [7] (low-dose FK (0.1 mg/kg)), the “c-Kit+ and CD133+ cells in peripheral blood” value is recorded as “significantly increases”. The skin xenograft survival result in [8] is given as “did not prolong the xenograft survival”. For the same molecule, the “recipient survival / kidney allograft acceptance” value in [9] is “did not prolong the recipient survival”.

The term IC50 denotes the concentration that gives 50% inhibition.
